Source: patent US5409952A, “Heterocyclic compounds: 2-styryl-4H-1-benzopyran-4-ones” (Adir et Compagnie, priority 1990, dated 1995)

Legend:
[1] = system: L1210 cell line; assay: Growth inhibition of cell line L1210 (tritiated thymidine incorporation); assay type: cell-based, mice; settings: Mus musculus, L1210, 24 hours, read-out: IC50, concentration that inhibits cell growth by 50%
Protocol: The growth of this leukaemia cell line in mice is assessed by the capacity of the cells to incorporate tritiated thymidine. The rate of incorporation is measured 24 hours after the introduction of the test compound into the culture medium.
Table V lists, for each compound, the concentration that inhibits cell growth by 50%.

[2] = patent EP 237166; isolated from an alga; cited from earlier work
[3] = system: HL-60 cells; assay: Cell differentiation of HL-60 cells (NBT reduction); assay type: cell-based, human; settings: HL-60, 20 μM, six days
Protocol: The cell differentiation is determined according to the method of J. M. GALLUP and al. (Proceedings of the Society for Experimental Biology and Medecine, 186, 269-274, 1987).
HL-60 cells (human promyclocyte) (2×10^5 cells/ml) are incubated during six days with the tested compounds. An aliquot (0,5 ml) of cells is than incubated with 0,5 ml of a 0,2% NBT (Nitroblue Tetrazolium) solution and […] of PMA (phorbol ester) for 20 min at 37° C.
Cells are washed with PBS and numbered under microscope, Table VII lists the percentage of cells containing cristals of reduced NBT (i,e, % of positive NBT cells) at the concentration of 20 μM.

[4] = system: colon C38 adenocarcinoma; assay: Anti-tumour activity on colon C38 adenocarcinoma in vivo; design: species or system mice; settings: colon 38 fragment s.c.; i.p. on 2nd and 4th days after implantation; day 20
Protocol: After subcutaneous implantation of a fragment of tumour (colon 38) in the axillary region, on the 2nd and 4th days after implantation a solution of the test compound is administered to a group of animals by the intraperitoneal route. On the 20th day the animals are sacrificed and the tumour volume is ascertained.
The % T/C ratio is calculated as follows: [formula]

[5] = Hypervitamin A toxicity; settings: result in words

| Compound | IC50 [1] | % of positive NBT cells [3] | other results |
| --- | --- | --- | --- |
| CCCc1cccc2c(=O)cc(/C=C/c3ccccc3)oc12 [Example 21, 8-Propyl-2-Styryl-4H-1-Benzopyran-4-One] | 7.25 µM | – | – |
| hormo-thamnione | – | – | Cytotoxic properties [2]: cytotoxic properties |
| COC(=O)c1ccc(/C=C/c2cc(=O)c3c(OC)c(C(=O)OC)c(OC)cc3o2)cc1 [Example 4, Methyl 5,7-Dimethoxy-2-(4-Methoxycarbonyl-Styryl)-4H -1-Benzopyran-6-Carboxylate] | 12 µM | – | – |
| C=CCc1cc(OC)cc2c(=O)cc(/C=C/c3ccccc3)oc12 [Example 20, 6-Methoxy-8-Allyl-2-Styryl-4H-1-Benzopyran-4-One] | 3 µM | – | – |
| C=CCc1cccc2c(=O)c(C)c(/C=C/c3ccccc3)oc12 [Example 19, 8-Allyl-3-Methyl-2-Styryl-4H-1-Benzopyran-4-One] | 6.6 µM | 45% | – |
| COC(=O)c1c(OC)cc2oc(/C=C/c3cc(OC)c(OC)c(OC)c3)cc(=O)c2c1OC [Example 3, Methyl 5,7-Dimethoxy-4-Oxo-2-(3,4,5-Tri-Methoxystyryl) -4H-1-Benzopyran-6-Carboxylate] | 5 µM | 59% | – |
| Cc1c(/C=C/c2ccccc2)oc2c(C)cccc2c1=O [Example 17, 3,8-Dimethyl-2-Styryl-4H-1-Benzopyran-4-One] | 7.5 µM | – | – |
| COC(=O)c1c(OC)cc2oc(/C=C/c3ccc(OC)c(OC)c3)cc(=O)c2c1OC [Example 2, Methyl 5,7-Dimethoxy-4-Oxo-2-(3,4-Dimethoxy-Styryl) -4H-1-Benzopyran-6-Carboxylate] | 6.4 µM | 85% | T/C % [4]: 35%; Tumour volume after 20 days [4]: 356 mm3 |
| CC1=C(/C=C/C(C)=C/C=C/C(C)=C/C(=O)O)C(C)(C)CCC1 [Retinoic acid, reference compound] | 20.1 µM | – | Hypervitamin A toxicity [5]: causing hypervitamin A toxicity |
| COc1ccc(/C=C/c2cc(=O)c3c(OC)c4ccoc4cc3o2)cc1OC [Example 7, 4-Methoxy-7-(3,4-Dimethoxystyryl)-5H -Furo[3,2-g]Benzopyran-5-One] | 8.5 µM | – | – |
| C=CCc1cccc2c(=O)cc(/C=C/c3ccccc3)oc12 [Example 18, 8-Allyl-2-Styryl-4H-1-Benzopyran-4-One] | 5.85 µM | – | – |
| COC(=O)c1c(OC)cc2oc(/C=C/c3ccccc3)cc(=O)c2c1OC [Example 1, Methyl 5,7-Dimethoxy-4-Oxo-2-Styryl-4H-1-Benzopyran-6-Carboxylate] | 12.5 µM | 52% | T/C % [4]: 56%; Tumour volume after 20 days [4]: 573 mm3 |
